Laboratory results taken from ChEMBL document CHEMBL1133367, “Structure-activity relationship studies of chloromethyl ketone derivatives for selective human chymase inhibitors” (Bioorg Med Chem Lett, 2000).

Experiments:
Chymotrypsinogen A = Chymotrypsinogen A (Bos taurus, UniProt P00766); test: Inhibitory activity against alpha-chymotrypsin (alpha-CT)
Chymase = target: T1, Chymase (Homo sapiens, UniProt P23946); test: Inhibitory activity against human serine protease chymase
T1 sequence (P23946 whole entry): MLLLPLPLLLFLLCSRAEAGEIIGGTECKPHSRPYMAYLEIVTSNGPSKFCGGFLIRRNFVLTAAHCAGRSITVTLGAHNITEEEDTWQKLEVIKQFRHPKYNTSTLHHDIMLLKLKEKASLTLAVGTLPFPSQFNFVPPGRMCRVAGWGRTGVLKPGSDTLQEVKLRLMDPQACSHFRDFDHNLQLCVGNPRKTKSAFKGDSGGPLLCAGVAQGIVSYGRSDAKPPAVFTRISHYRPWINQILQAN

Trypsin = Trypsin (Sus scrofa, UniProt P00761); test: Inhibitory activity against porcine pancreatic trypsin (TRP)
Sequence of Trypsin (P00761 whole entry): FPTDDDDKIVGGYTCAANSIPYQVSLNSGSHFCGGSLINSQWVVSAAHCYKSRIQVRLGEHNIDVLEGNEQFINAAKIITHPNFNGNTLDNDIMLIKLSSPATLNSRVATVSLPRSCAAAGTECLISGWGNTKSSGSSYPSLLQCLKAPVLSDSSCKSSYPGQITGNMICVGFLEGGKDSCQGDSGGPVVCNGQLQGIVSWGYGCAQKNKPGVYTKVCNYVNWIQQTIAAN

Cathepsin G = target: T2, Cathepsin G (Homo sapiens, UniProt P08311); test: Inhibitory activity against human leukocyte cathepsin G
T2 sequence (P08311 whole entry): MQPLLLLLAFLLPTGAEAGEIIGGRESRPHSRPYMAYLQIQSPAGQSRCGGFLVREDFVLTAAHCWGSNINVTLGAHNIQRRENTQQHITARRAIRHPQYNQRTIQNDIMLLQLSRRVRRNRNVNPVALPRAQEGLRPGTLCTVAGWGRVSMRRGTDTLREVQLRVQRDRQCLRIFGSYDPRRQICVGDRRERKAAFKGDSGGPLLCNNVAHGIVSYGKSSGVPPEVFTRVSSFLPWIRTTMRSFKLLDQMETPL

For `Cc1cccc(CCC(=O)N[C@@H](Cc2ccccc2)C(=O)CCl)c1`, the IC50 (Chymotrypsinogen A) was 11 µM, the IC50 (Chymase) was 0.43 µM and the IC50 (Trypsin) was 290 µM.

In the case of `COc1ccc(CCC(=O)N[C@@H](Cc2ccccc2)C(=O)CCl)cc1`, the IC50 (Chymotrypsinogen A) is reported as 2.2 µM, the IC50 (Cathepsin G) is reported as 9.3 µM and the IC50 (Trypsin) is reported as over 1000 µM.

In the case of `CCc1ccc(CCC(=O)N[C@@H](Cc2ccccc2)C(=O)CCl)cc1`, the IC50 (Chymotrypsinogen A) is reported as 37 µM and the IC50 (Trypsin) is reported as 120 µM.

With `O=C(CCc1ccc(Cl)c(Cl)c1)N[C@@H](Cc1ccccc1)C(=O)CCl` the IC50 (Chymotrypsinogen A) was 4.2 µM, the IC50 (Chymase) was 3.7 µM and the IC50 (Trypsin) was 28 µM.

For `O=C(CCc1cccc(C(F)(F)F)c1)N[C@@H](Cc1ccccc1)C(=O)CCl`, the IC50 (Chymotrypsinogen A) was 20 µM and the IC50 (Trypsin) was 34 µM.

Compound `O=C(N[C@@H](Cc1ccccc1)C(=O)CCl)c1ccccc1` has an IC50 (Chymotrypsinogen A) of 9.3 µM, an IC50 (Chymase) of 1.3 µM and an IC50 (Trypsin) of 240 µM.

`O=C(CCCCc1ccccc1)N[C@@H](Cc1ccccc1)C(=O)CCl` gave an IC50 (Chymotrypsinogen A) of 18 µM, an IC50 (Chymase) of 1.2 µM and an IC50 (Trypsin) of over 1000 µM.

`O=C(N[C@@H](Cc1ccccc1)C(=O)CCl)OCc1ccccc1` was tested, and the IC50 (Chymotrypsinogen A) was 17 µM, the IC50 (Chymase) was 0.4 µM and the IC50 (Trypsin) was 210 µM.

`O=C(CCc1cccc(F)c1)N[C@@H](Cc1ccccc1)C(=O)CCl` was tested, and the IC50 (Chymotrypsinogen A) was 44 µM, the IC50 (Chymase) was 1.2 µM and the IC50 (Trypsin) was over 1000 µM.

Compound `CC(C)c1ccc(CCC(=O)N[C@@H](Cc2ccccc2)C(=O)CCl)cc1` has an IC50 (Chymotrypsinogen A) of 39 µM and an IC50 (Trypsin) of 4 µM.

`O=C(CCc1cccc(Cl)c1)N[C@@H](Cc1ccccc1)C(=O)CCl` was tested, and the IC50 (Chymotrypsinogen A) was 23 µM, the IC50 (Chymase) was 0.89 µM and the IC50 (Trypsin) was 44 µM.

Compound `COc1cccc(CCC(=O)N[C@@H](Cc2ccccc2)C(=O)CCl)c1` has an IC50 (Chymotrypsinogen A) of 85 µM and an IC50 (Trypsin) of over 1000 µM.

In the case of `O=C(CCc1cccc(O)c1)N[C@@H](Cc1ccccc1)C(=O)CCl`, the IC50 (Chymotrypsinogen A) is reported as 5.2 µM, the IC50 (Chymase) is reported as 1.8 µM and the IC50 (Trypsin) is reported as 75 µM.

`O=C(CCc1ccc(Cl)cc1)N[C@@H](Cc1ccccc1)C(=O)CCl` was tested, and the IC50 (Chymotrypsinogen A) was 18 µM, the IC50 (Chymase) was 1.9 µM and the IC50 (Trypsin) was over 1000 µM.

`O=C(CCc1ccc(C(F)(F)F)cc1)N[C@@H](Cc1ccccc1)C(=O)CCl` showed an IC50 (Chymotrypsinogen A) of 17 µM and an IC50 (Trypsin) of 30 µM.

In the case of `O=C(CCc1ccc(F)cc1)N[C@@H](Cc1ccccc1)C(=O)CCl`, the IC50 (Chymotrypsinogen A) is reported as 100 µM, the IC50 (Chymase) is reported as 2.4 µM and the IC50 (Trypsin) is reported as over 1000 µM.

With `O=C(CCCc1ccccc1)N[C@@H](Cc1ccccc1)C(=O)CCl` the IC50 (Chymotrypsinogen A) was 26 µM, the IC50 (Chymase) was 2.5 µM and the IC50 (Trypsin) was 690 µM.

Compound `COc1ccc(CCC(=O)N[C@@H](Cc2ccccc2)C(=O)CCl)cc1OC` has an IC50 (Chymotrypsinogen A) of 51 µM and an IC50 (Trypsin) of over 1000 µM.

Compound `Cc1ccccc1CCC(=O)N[C@@H](Cc1ccccc1)C(=O)CCl` has an IC50 (Chymotrypsinogen A) of 12 µM, an IC50 (Chymase) of 0.78 µM and an IC50 (Trypsin) of 600 µM.

Work on `Cc1ccc(CCC(=O)N[C@@H](Cc2ccccc2)C(=O)CCl)cc1` yielded an IC50 (Chymotrypsinogen A) of 97 µM, an IC50 (Chymase) of 0.3 µM and an IC50 (Trypsin) of 260 µM.

For `O=C(CCc1ccc(O)cc1)N[C@@H](Cc1ccccc1)C(=O)CCl`, the IC50 (Chymotrypsinogen A) was 14 µM, the IC50 (Chymase) was 2.7 µM and the IC50 (Trypsin) was over 1000 µM.

Compound `COc1cccc(CCC(=O)N[C@@H](Cc2ccccc2)C(=O)CCl)c1OC` has an IC50 (Chymotrypsinogen A) of 2.2 µM and an IC50 (Trypsin) of over 1000 µM.

In the case of `COc1ccccc1CCC(=O)N[C@@H](Cc1ccccc1)C(=O)CCl`, the IC50 (Chymotrypsinogen A) is reported as 2.7 µM and the IC50 (Trypsin) is reported as 34 µM.

With `O=C(CCc1ccccc1F)N[C@@H](Cc1ccccc1)C(=O)CCl` the IC50 (Chymotrypsinogen A) was 34 µM and the IC50 (Chymase) was 0.36 µM.

`O=C(CCc1cccc(Cl)c1Cl)N[C@@H](Cc1ccccc1)C(=O)CCl` gave an IC50 (Chymotrypsinogen A) of 10 µM, an IC50 (Chymase) of 0.4 µM and an IC50 (Trypsin) of 97 µM.

Work on `O=C(Cc1ccccc1)N[C@@H](Cc1ccccc1)C(=O)CCl` yielded an IC50 (Chymotrypsinogen A) of 20 µM, an IC50 (Chymase) of 4.7 µM and an IC50 (Trypsin) of over 1000 µM.

Compound `O=C(CCc1ccccc1Cl)N[C@@H](Cc1ccccc1)C(=O)CCl` has an IC50 (Chymotrypsinogen A) of 97 µM, an IC50 (Chymase) of 0.6 µM and an IC50 (Trypsin) of 85 µM.

`O=C(/C=C/c1ccccc1)N[C@@H](Cc1ccccc1)C(=O)CCl` gave an IC50 (Chymotrypsinogen A) of 8.7 µM, an IC50 (Chymase) of 15 µM and an IC50 (Trypsin) of 210 µM.

`O=C(CCc1ccccc1)N[C@@H](Cc1ccccc1)C(=O)CCl` showed an IC50 (Chymotrypsinogen A) of 37 µM and an IC50 (Trypsin) of over 1000 µM.

For `Cc1ccc(S(=O)(=O)N[C@@H](Cc2ccccc2)C(=O)CCl)cc1` [TPCK], the IC50 (Chymotrypsinogen A) was 140 µM, the IC50 (Chymase) was 3.3 µM and the IC50 (Cathepsin G) was 110 µM. It also gave an IC50 (Trypsin) of 200 µM.
